Tests used:
[1] = tested on: c-MYC promoter (Pu27-GQ) in MCF-7 cells; assay: Dual-luciferase assay, c-MYC promoter with Pu27-GQ; type: cell-based, human; conditions: for c-MYC promoter activity, fold repression: MCF-7, 24 h peptide treatment, 60 μM, Renilla/firefly normalised; for c-MYC promoter activity: MCF-7, 24 h, peptide 0–60 μM
Description: (§1) MCF-7 cells are sub-cultured into 24-well microtiter plates at a cell density of 1 × 10^5 cells/well. Reporter constructs (c-MYC, BCL-2, KRAS and VEGF-A) (500 ng) with and/or without the G-quadruplex scaffolds triggering the expression of Renilla luciferase are co-transfected with 50 ng of pGL3-control vectors (Promega) (used as internal control), encoding firefly luciferase into MCF-7 cells using Lipofectamine® 3000 transfection reagent (Thermo-Fisher Scientific) following manufacturer's recommendations (Supplementary information Section 1). Twenty four hours post-transfection, cells are treated with peptides (FK13, KR12A, KR12B, KR12C, KR12D and KR12E) at an increasing concentration gradient.
(§2) Dual-luciferase assays are performed to examine the intracellular selectivity of peptides for c-MYC quadruplex isomers (Pu27, Myc22 and Pu19) over other oncogenic quadruplexes (BCL-2, VEGF-A and KRAS) of different topologies. The role of peptide-quadruplex complex in oncogene promoter activation is investigated in contrast to the GQ-null promoter constructs into MCF-7 cells ([67]). After 24 h of peptide treatment, cells are washed and lysed into 100 μl 1× Passive lysis buffer (PLB) for 15 min at room temperature. Renilla and firefly Luciferase activities in 25 μl lysate are quantified by Dual-Luciferase® reporter assay system (Promega) as per manufacturer's recommendations. Renilla luciferase enzyme activity is normalized to that of the firefly luciferase activity and luminescence of the peptide-treated samples are normalized to the untreated ones, which yield the fold induction values for Renilla activities by different quadruplex structures in presence and absence of synthetic peptides. Luminescence of each sample is detected in GloMax® 20/20 Single-Tube Luminometer (Promega) in triplicates and averaged from three independent experiments.

[2] = tested on: BCL-2 promoter (BCL-2-GQ) in MCF-7 cells; assay: Dual-luciferase assay, BCL-2 promoter with BCL-2-GQ; type: cell-based, human; conditions: MCF-7, 24 h, peptide 0–60 μM
Description: as §1, §2

[3] = tested on: c-MYC promoter with Myc22 isomer in MCF-7 cells; assay: Dual-luciferase assay, c-MYC promoter under control of Myc22; type: cell-based, human; conditions: MCF-7, 24 h peptide treatment
Description: as §1, §2

[4] = tested on: c-MYC promoter with Pu19 isomer in MCF-7 cells; assay: Dual-luciferase assay, c-MYC promoter under control of Pu19; type: cell-based, human; conditions: MCF-7, 24 h peptide treatment
Description: as §1, §2

[5] = tested on: RNAPII at c-MYC promoter in MCF-7 cells; assay: ChIP, RNA polymerase II occupancy at c-MYC promoter; type: cell-based, human; conditions: MCF-7, 24 h, ChIP-qPCR versus IgG control
Description: (§3) Chromatin immunoprecipitation studies are conducted to monitor the promoter occupancies of different transcription factors (Sp1, NM23-H2 and Nucleolin) and RNA polymerase II (RNAPII) on the region encompassing c-MYC-NHE III1 ([69]). We have grown MCF-7 cells in 10-cm^2 culture flask at a density of 1 × 10^6 cells per well and treated with the synthetic peptides (FK13, KR12A, KR12B, and KR12C) for 24 hours. Cells are cross-linked with 1% formaldehyde at room temperature for 10 min and the reaction is stopped by 0.125 M glycine at room temperature for 10 min. Fixed cells are lysed and sonicated to yield DNA fragments of 200–500 bp. ChIP-grade antibodies (NM23-H2 (L-15) Antibody (sc-14790, Santa Cruz), and Anti-Nucleolin antibody [4E2]-ChIP Grade (Abcam)), Anti Sp1 antibody (Sigma), and Rpb1 (RNAPII subunit b1) CTD (C-terminal domain) 4H8 antibody are added to the sonicated chromatin and incubated overnight at 4°C. Then, 10 μl protein A magnetic beads (Dynal, Invitrogen), previously washed in RIPA buffer are added to the samples and bead–protein complexes are washed thrice with RIPA buffer and twice with TE buffer. The genomic DNA is eluted for 2 h at 68°C in complete elution Buffer (20 mM Tris, pH 7.5, 5 mM EDTA, 50 mM NaCl, 1% SDS and 50 μg/ml proteinase K) and further combined with the DNA eluted from second elution for 10 min at 68°C in 100 μl of elution buffer (20 mM Tris, pH 7.5, 5 mM EDTA and 50 mM NaCl). ChIP-isolated DNA is purified using MinElute Purification kit (Qiagen) and is amplified by PCR (Polymerase Chain Reaction) reactions using forward and reverse primers ([70]) (Supplementary Table S4) specific to the quadruplex-enriched regions at c-MYC promoter and Phusion® High-Fidelity PCR Kit (NEB). Anti-rabbit IgG is employed for mock immunoprecipitation (Negative control).

[6] = tested on: Sp1 at c-MYC-NHE III1 in MCF-7 cells; assay: ChIP, Sp1 occupancy at c-MYC-NHE III1; type: cell-based, human; conditions: MCF-7, 24 h, ChIP-qPCR versus IgG control
Description: as §3

[7] = tested on: NM23-H2 at c-MYC-NHE III1 in MCF-7 cells; assay: ChIP, NM23-H2 occupancy at c-MYC-NHE III1; type: cell-based, human; conditions: MCF-7, 24 h, ChIP-qPCR versus IgG control
Description: as §3

[8] = tested on: Nucleolin at c-MYC-NHE III1 in MCF-7 cells; assay: ChIP, Nucleolin occupancy at c-MYC-NHE III1; type: cell-based, human; conditions: MCF-7, 24 h, ChIP-qPCR versus IgG control
Description: as §3

c-MYC quadruplex Pu27 = assay: CD melting of free and peptide-bound Pu27; type: binding, human
Description: To understand the role of peptides (FK13, KR12A, KR12B, KR12C, KR12D and KR12E) in stabilizing native and truncated isomers of c-MYC G-quadruplex, we have performed temperature-driven CD melting experiments for free and peptide-bound complexes in JASCO-J815 CD spectrometer. We have gradually titrated the peptides into 10 μM of putative quadruplexes and acquired the spectra after 5 min of peptide addition to allow complex formation and equilibration. Samples are heated from 20 to 95°C having the temperature gradient and the delay time of 2.5°C/min and 150 s respectively. Since the quadruplexes unfold at higher temperatures and revert back to their initial conformations upon renaturation, we have assumed a ‘two-state transition’ model (folded and unfolded) to analyze the melting curves and estimated the melting temperatures (Tm) by fitting the data points into sigmoidal curves (Supplementary information Section 1).

[9] = tested on: KRAS promoter (KRAS-GQ) in MCF-7 cells; assay: Dual-luciferase assay, KRAS promoter with KRAS-GQ; type: cell-based, human; conditions: MCF-7, 24 h; for KRAS promoter activity: peptide 0–60 μM
Description: as §1, §2

[10] = 10 μM quadruplex, two-state model

| rise in the Tm of Pu27 upon peptide binding (c-MYC quadruplex Pu27; [10]) [°C] | decrease of the Tm of Pu27 upon peptide binding (c-MYC quadruplex Pu27; [10]) [°C] | Substance | c-MYC promoter activity, fold repression [1] [fold] | BCL-2 promoter activity [2] | c-MYC promoter activation under control of Myc22 [3] | c-MYC promoter activation under control of Pu19 [4] | RNAPII occupancy at c-MYC promoter [5] | Sp1 occupancy at c-MYC-NHE III1 [6] | NM23-H2 occupancy at c-MYC-NHE III1 [7] | Nucleolin occupancy at c-MYC-NHE III1 [8] | c-MYC promoter activity [1] | KRAS promoter activity [9] | c-MYC promoter attrition in presence of Myc22, fold [3] [fold] | c-MYC promoter attrition in presence of Pu19, fold [4] [fold] | effect on thermal stability of Pu27 (c-MYC quadruplex Pu27) | KRAS promoter activity, fold inhibition ([9]; at higher concentration) [fold] |
| --- | --- | --- | --- | --- | --- | --- | --- | --- | --- | --- | --- | --- | --- | --- | --- | --- |
| – | – | N – FKRIVQRIKDFLR – C [FK13] | ~2 | significantly downregulate | attenuated | attenuated | did not significantly altered | no role | no role | no role | – | – | – | – | – | – |
| 9 | – | N – KRIVKLIKKWLR – C [KR12C] | – | no significant impact | – | – | significantly depleted | depleted | depleted | depleted | selectively attenuated | no significant impact | ~5 | ~5 | – | – |
| – | – | N – KRIVKRIKKWLR – C [KR12B, dodecameric mutant peptide derived from FK13 / LL37] | – | inverse regulation | – | weaker | significantly depleted | no role in Sp1 occupancy | depleted the abundance | depleted the abundance | selectively attenuated | inverse regulation | – | – | did not significantly induce thermal stability | – |
| – | ~30 | N – KRIVQRIKKWLR – C [KR12A, dodecameric mutant peptide derived from FK13 / LL37] | ~2 | significantly downregulate | attenuated | attenuated | depleted RNAPII occupancy | slightly enriched | slightly enriched | did not significantly affect | – | – | – | – | – | ~2.5 |

— PMC6212778, “Site-specific amino acid substitution in dodecameric peptides determines the stability and unfolding of c-MYC quadruplex promoting apoptosis in cancer cells” (Nucleic Acids Research, 2018)
